Measured values reported in patent US12479847B2 (DANA-FARBER CANCER INSTITUTE, INC., priority 2019, dated 2025).

Assays:
Assay in all cases: KINOMEscan (ScanMAX) kinase profiling
Format in all cases: binding
panel of 468 kinases [1] = target: T1, panel of 468 kinases (Homo sapiens, UniProt Q00535); details: CDK5; 1 μM; read-out: % control
T1 construct: purchased KINOMEscan (ScanMAX) service
Description: (§1) The kinase selectivity of inventive compounds 12, 75, and 77 was evaluated by KINOMEscan®. KINOMEscan® (ScanMAX™) analysis was performed against a near comprehensive panel of 468 kinases. The control percentage (% control) for inventive compounds at 1 μM in DMSO was determined by Equation 1: % control=(inventive compound−positive control)/(negative control−positive control)×100%, Equation 1
(§2) wherein the positive control is a compound with a % control value of 0% relative light units (RLU), and the negative control (i.e., DMSO) has % control value of 100% RLU. The enzyme selectivity in the present invention is defined as follows: inventive compounds are considered active for an enzyme when the observed % control is less than 35% (<35%).

panel of 468 kinases [2] = target: T2, panel of 468 kinases (Homo sapiens, UniProt Q9BQI3); details: EIF2AK1; 1 μM; read-out: % control
T2 construct: purchased KINOMEscan (ScanMAX) service
Description: as §1, §2

panel of 468 kinases [3] = target: T3, panel of 468 kinases (Homo sapiens, UniProt P36507); details: MEK2; 1 μM; read-out: % control
T3 construct: purchased KINOMEscan (ScanMAX) service
Description: as §1, §2

panel of 468 kinases [4] = target: T4, panel of 468 kinases (Homo sapiens, UniProt P51956); details: NEK3; 1 μM; read-out: % control
T4 construct: purchased KINOMEscan (ScanMAX) service
T4 sequence (P51956 1-506): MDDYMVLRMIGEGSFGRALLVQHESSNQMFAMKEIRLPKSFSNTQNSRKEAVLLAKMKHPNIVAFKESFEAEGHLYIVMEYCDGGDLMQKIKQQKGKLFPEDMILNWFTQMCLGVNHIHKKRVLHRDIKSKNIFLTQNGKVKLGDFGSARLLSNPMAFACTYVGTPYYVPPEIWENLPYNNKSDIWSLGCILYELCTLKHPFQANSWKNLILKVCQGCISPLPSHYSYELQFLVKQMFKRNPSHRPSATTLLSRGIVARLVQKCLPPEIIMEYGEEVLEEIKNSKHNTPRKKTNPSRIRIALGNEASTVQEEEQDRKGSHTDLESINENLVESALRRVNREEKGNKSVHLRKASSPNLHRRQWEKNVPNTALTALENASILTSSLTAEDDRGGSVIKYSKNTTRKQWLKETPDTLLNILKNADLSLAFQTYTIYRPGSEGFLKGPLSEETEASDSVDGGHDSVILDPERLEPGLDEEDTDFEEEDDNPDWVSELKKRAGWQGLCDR
Description: as §1, §2

panel of 468 kinases [5] = target: T5, panel of 468 kinases (Homo sapiens, UniProt Q32MK0); details: MLCK; 1 μM; read-out: % control
T5 construct: purchased KINOMEscan (ScanMAX) service
T5 sequence (Q32MK0 1-819): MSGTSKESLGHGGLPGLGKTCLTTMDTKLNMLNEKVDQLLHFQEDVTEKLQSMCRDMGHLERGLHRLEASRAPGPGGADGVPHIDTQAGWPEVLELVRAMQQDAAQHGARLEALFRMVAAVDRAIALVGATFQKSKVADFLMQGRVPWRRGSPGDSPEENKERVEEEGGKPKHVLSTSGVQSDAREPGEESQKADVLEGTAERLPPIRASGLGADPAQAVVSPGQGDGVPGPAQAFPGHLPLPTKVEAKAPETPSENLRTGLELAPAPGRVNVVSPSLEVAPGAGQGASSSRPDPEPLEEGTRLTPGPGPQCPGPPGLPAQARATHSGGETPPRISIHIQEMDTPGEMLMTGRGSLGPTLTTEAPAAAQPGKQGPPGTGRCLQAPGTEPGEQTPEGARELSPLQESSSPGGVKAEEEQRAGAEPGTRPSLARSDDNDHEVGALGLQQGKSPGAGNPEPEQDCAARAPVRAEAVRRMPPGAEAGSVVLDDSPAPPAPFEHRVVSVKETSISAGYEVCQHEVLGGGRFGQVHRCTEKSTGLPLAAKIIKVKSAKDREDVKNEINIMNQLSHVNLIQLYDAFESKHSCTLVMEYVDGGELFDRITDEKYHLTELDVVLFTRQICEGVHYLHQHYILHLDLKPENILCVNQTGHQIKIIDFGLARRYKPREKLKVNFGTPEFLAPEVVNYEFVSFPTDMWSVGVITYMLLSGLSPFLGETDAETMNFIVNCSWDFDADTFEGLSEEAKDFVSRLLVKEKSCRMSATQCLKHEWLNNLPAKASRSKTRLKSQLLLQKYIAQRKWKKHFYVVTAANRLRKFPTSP
Description: as §1, §2

panel of 468 kinases [6] = target: T6, panel of 468 kinases (Homo sapiens, UniProt P10721, V559D/V654A); details: KIT(V559D,V654A); 1 μM; read-out: % control
T6 construct: purchased KINOMEscan (ScanMAX) service
Description: as §1, §2

panel of 468 kinases [7] = target: T7, panel of 468 kinases (Homo sapiens, UniProt Q9H1R3); details: MYLK2; 1 μM; read-out: % control
T7 construct: purchased KINOMEscan (ScanMAX) service
Description: as §1, §2

panel of 468 kinases [8] = target: T8, panel of 468 kinases (Homo sapiens, UniProt Q16566); details: CAMK4; 1 μM; read-out: % control
T8 construct: purchased KINOMEscan (ScanMAX) service
T8 sequence (Q16566 1-473): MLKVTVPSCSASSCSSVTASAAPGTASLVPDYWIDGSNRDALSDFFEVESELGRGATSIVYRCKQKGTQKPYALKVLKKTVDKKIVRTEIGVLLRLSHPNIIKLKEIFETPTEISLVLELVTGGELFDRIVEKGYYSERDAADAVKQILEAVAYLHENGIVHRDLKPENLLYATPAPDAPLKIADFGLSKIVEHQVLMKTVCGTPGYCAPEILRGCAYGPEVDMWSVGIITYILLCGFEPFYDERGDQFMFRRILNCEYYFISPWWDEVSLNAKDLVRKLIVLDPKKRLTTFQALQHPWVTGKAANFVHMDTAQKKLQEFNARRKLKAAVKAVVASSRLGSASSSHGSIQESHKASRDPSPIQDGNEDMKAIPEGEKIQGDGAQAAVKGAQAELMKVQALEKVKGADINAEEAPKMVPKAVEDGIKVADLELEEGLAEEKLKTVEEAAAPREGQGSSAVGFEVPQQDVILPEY
Description: as §1, §2

panel of 468 kinases [9] = target: T9, panel of 468 kinases (Homo sapiens, UniProt Q9Y463); details: DYRK1B; 1 μM; read-out: % control
T9 construct: purchased KINOMEscan (ScanMAX) service
Description: as §1, §2

panel of 468 kinases [10] = target: T10, panel of 468 kinases (Homo sapiens, UniProt P50750); details: CDK9; 1 μM; read-out: % control
T10 construct: purchased KINOMEscan (ScanMAX) service
Description: as §1, §2

panel of 468 kinases [11] = target: T11, panel of 468 kinases (Homo sapiens, UniProt Q15208); details: NDR1; 1 μM; read-out: % control
T11 construct: purchased KINOMEscan (ScanMAX) service
Description: as §1, §2

panel of 468 kinases [12] = target: T12, panel of 468 kinases (Homo sapiens, UniProt P49137); details: MAPKAPK2; 1 μM; read-out: % control
T12 construct: purchased KINOMEscan (ScanMAX) service
Description: as §1, §2

T2 sequence (Q9BQI3 whole entry): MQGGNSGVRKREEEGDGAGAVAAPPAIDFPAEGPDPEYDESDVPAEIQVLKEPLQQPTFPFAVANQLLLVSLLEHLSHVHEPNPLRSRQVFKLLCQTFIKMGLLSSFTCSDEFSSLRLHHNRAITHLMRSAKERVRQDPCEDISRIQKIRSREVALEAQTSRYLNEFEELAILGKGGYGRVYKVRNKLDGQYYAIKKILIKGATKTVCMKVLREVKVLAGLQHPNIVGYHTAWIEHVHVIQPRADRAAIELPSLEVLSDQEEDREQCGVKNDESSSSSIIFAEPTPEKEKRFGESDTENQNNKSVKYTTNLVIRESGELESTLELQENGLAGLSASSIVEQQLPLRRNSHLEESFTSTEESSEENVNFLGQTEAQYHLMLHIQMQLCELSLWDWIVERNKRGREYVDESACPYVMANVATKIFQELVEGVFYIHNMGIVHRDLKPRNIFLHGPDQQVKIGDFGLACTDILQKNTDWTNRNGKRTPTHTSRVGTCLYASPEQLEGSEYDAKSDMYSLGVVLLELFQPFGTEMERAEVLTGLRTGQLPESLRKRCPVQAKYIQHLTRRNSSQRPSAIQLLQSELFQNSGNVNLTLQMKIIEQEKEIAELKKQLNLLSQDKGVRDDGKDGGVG
T6 sequence (P10721 26-976 V559D/V654A): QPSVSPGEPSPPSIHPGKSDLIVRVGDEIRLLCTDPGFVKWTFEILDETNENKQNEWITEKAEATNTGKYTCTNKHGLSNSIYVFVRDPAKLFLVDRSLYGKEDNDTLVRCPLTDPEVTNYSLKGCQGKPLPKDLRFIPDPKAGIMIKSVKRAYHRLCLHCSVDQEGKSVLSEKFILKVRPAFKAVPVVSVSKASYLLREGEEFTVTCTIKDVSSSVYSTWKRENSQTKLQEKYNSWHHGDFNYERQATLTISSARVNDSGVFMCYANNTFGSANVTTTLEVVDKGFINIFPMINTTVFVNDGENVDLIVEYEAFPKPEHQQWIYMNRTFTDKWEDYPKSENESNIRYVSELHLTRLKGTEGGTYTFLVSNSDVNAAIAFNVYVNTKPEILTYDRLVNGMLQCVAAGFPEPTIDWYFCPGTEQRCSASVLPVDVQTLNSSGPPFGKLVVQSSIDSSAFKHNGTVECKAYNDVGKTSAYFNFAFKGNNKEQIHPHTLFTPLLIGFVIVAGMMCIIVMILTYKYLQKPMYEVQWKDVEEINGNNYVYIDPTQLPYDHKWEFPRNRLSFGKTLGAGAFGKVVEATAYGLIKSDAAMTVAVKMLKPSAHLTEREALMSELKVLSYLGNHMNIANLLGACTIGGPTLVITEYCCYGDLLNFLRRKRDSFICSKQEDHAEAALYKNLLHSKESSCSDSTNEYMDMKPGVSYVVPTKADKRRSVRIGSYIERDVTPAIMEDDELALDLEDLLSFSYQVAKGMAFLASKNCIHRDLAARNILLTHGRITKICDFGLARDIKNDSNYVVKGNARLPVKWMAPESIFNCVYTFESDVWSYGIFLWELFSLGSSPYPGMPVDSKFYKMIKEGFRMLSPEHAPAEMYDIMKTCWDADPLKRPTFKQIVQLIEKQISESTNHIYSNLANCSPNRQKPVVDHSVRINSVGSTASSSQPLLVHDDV
T7 sequence (Q9H1R3 whole entry): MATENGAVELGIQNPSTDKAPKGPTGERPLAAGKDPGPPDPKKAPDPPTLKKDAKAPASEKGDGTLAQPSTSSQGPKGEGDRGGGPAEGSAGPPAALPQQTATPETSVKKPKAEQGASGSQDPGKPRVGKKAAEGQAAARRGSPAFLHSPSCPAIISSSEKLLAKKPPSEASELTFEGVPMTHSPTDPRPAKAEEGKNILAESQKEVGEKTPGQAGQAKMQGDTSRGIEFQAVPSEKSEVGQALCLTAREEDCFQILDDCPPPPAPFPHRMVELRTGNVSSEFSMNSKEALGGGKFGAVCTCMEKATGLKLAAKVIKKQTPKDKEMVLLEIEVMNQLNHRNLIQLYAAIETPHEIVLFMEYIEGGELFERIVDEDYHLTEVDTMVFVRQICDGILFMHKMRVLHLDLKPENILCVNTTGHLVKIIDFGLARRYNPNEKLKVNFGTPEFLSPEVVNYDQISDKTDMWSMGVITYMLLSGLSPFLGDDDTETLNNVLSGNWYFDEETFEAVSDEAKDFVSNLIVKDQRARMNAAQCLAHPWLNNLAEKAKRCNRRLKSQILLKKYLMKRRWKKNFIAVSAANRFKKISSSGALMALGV
T1 sequence (Q00535 whole entry): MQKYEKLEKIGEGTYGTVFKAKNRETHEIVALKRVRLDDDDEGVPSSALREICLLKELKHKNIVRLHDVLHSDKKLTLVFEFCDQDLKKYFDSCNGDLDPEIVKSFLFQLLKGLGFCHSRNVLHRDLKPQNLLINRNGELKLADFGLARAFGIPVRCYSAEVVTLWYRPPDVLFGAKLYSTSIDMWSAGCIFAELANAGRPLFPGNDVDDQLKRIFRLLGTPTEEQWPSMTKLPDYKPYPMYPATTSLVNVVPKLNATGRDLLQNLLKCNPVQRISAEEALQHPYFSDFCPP
T3 sequence (P36507 whole entry): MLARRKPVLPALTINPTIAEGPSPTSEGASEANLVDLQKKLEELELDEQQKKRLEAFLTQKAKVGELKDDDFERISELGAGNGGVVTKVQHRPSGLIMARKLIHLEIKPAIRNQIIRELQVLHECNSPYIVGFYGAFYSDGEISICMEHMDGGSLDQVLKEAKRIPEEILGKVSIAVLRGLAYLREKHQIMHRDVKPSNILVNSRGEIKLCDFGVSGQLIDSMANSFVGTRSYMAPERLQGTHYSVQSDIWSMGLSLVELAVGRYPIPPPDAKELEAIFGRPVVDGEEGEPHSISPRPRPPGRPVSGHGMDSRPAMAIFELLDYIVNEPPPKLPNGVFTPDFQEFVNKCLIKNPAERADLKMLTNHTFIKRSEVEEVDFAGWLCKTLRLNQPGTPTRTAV
T11 sequence (Q15208 whole entry): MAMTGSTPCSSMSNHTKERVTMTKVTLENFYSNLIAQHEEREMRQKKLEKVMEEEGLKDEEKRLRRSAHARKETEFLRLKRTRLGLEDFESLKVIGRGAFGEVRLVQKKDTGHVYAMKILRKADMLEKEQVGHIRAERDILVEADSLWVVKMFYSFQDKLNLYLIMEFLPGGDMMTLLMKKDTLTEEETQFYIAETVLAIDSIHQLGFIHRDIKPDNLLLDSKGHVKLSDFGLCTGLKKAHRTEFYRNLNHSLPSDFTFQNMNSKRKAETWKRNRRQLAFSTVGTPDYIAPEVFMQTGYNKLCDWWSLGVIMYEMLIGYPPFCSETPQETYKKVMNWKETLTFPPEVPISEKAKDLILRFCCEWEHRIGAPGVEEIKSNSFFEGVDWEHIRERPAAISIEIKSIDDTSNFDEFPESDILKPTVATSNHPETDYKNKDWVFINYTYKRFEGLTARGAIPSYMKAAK
T9 sequence (Q9Y463 whole entry): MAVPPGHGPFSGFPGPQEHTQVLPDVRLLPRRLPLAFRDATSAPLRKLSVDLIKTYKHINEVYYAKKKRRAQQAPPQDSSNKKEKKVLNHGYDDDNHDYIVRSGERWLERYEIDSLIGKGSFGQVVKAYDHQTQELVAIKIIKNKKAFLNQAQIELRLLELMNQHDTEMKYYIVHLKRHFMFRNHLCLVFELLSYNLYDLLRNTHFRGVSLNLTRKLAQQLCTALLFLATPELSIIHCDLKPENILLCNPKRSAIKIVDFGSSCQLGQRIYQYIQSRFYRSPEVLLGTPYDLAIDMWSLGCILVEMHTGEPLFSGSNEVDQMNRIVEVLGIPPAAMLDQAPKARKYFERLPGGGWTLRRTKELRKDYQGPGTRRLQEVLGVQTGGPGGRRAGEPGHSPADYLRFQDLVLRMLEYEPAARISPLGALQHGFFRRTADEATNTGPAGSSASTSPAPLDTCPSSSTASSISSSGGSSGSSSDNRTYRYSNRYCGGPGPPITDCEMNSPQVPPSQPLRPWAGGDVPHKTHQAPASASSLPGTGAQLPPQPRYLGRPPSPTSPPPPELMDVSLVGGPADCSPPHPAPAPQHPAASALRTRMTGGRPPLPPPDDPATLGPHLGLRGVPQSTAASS
T10 sequence (P50750 whole entry): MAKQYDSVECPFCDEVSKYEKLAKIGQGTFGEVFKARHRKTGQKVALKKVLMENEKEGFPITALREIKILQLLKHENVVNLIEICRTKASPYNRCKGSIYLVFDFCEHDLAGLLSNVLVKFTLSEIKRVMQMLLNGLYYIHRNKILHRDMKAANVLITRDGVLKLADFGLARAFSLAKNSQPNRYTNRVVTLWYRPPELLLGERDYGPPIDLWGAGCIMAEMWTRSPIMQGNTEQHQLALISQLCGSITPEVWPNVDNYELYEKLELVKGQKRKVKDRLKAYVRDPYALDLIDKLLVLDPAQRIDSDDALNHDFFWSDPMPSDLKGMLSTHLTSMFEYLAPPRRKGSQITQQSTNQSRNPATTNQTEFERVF
T12 sequence (P49137 whole entry): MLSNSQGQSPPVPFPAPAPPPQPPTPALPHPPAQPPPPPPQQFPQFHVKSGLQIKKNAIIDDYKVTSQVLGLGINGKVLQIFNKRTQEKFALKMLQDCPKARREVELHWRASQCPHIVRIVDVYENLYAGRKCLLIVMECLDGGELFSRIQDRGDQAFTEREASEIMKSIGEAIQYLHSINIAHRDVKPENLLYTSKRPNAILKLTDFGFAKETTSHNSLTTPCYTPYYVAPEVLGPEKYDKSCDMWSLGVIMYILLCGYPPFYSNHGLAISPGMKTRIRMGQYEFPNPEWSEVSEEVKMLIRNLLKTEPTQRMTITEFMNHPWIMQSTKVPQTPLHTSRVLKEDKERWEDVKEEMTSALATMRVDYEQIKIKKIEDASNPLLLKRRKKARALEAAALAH

Compound | remaining binding at 1 µM (panel of 468 kinases [1]) | remaining binding at 1 µM (panel of 468 kinases [2]) | remaining binding at 1 µM (panel of 468 kinases [3]) | remaining binding at 1 µM (panel of 468 kinases [4]) | remaining binding at 1 µM (panel of 468 kinases [5]) | remaining binding at 1 µM (panel of 468 kinases [6]) | remaining binding at 1 µM (panel of 468 kinases [7]) | remaining binding at 1 µM (panel of 468 kinases [8]) | remaining binding at 1 µM (panel of 468 kinases [9]) | remaining binding at 1 µM (panel of 468 kinases [10]) | remaining binding at 1 µM (panel of 468 kinases [11]) | remaining binding at 1 µM (panel of 468 kinases [12])
CNc1nc(Nc2ccc(S(=O)(=O)N3CCC(N4CCOCC4)CC3)cc2OC)nc2[nH]cc(Cl)c12 [Compound 12, 5-chloro-N2-(2-methoxy-4-((4-morpholinopiperidin-1-yl)sulfonyl)phenyl)-N4-methyl-7H-pyrrolo[2,3-d]pyrimidine-2,4-diamine] | 100% | 100% | 78% | 51% | 100% | 100% | 100% | 100% | 6.1% | 100% | 83% | 72%
CNc1nc(Nc2ccc(P3(=O)CCN(C4CCOCC4)CC3)cc2OC)nc2[nH]cc(Cl)c12 [Compound 77, 4-(4-((5-chloro-4-(methylamino)-7H-pyrrolo[2,3-d]pyrimidin-2-yl)amino)-3-methoxyphenyl)-1-(tetrahydro-2H-pyran-4-yl)-1,4-azaphosphinane 4-oxide] | 100% | 81% | 78% | 52% | 98% | 96% | 100% | 100% | 13% | 100% | 83% | 100%
CNc1nc(Nc2ccc(C(=O)N3CCC(N4CCOCC4)CC3)c3c2OCO3)nc2[nH]cc(Cl)c12 [Compound 75, (7-((5-chloro-4-(methylamino)-7H-pyrrolo[2,3-d]pyrimidin-2-yl)amino)benzo[d][1,3]dioxol-4-yl)(4-morpholinopiperidin-1-yl)methanone] | 100% | 62% | 76% | 54% | 35% | 94% | 86% | 100% | 0% | 100% | 90% | 31%
